Data from patent publication US20230159587A1, “PHARMACEUTICAL COMPOSITION FOR PREVENTING OR TREATING CANCER” (L-BASE CO., LTD., priority 2021, published 2023).
Residues, ends and D or L forms follow the SMILES beside them. No end group written: not given here. *: point of attachment. Benzoyl(3-Ph) = O=C(c1cccc(-c2ccccc2)c1)*; Benzoyl(4-Ph) = O=C(c1ccc(-c2ccccc2)cc1)*; Benzoyl(2-Ph) = O=C(c1ccccc1-c1ccccc1)*; Benzoyl(4-OMe) = COc1ccc(C(=O)*)cc1; 2Naphthoyl = O=C(c1ccc2ccccc2c1)*; Bz = O=C(c1ccccc1)*

Columns and labels:
[1] = test system: lung cancer cell line H1299; test: CTG assay, cell viability suppression in lung cancer cell line H1299; assay type: cell-based; settings: H1299, 100 μM, 48 hours
Procedure: (§1) After 48 hours, a CellTiter-Glo® (Promega Co., USA) reagent was mixed in the same amount as the cell culture medium and allowed to react in an orbital shaker for 2 minutes. After reaction at room temperature for 10 minutes, the luminescence signal was measured using a luminometer (GloMax®, Promega).

[2] = test system: breast cancer cell line HCC1937; test: MTT assay, proliferation suppression in breast cancer cell line HCC1937; assay type: cell-based; settings: HCC1937, 100 μM, 72 hours
Procedure: (§2) After 72 hours, 10 μl of a CellTiter-96® (Promega Co., USA) reagent was added to each well and allowed to react at 5% CO2 and 37° C. After 3 hours, absorbance was measured at 490 nm using a spectrophotometer (SPECTROstar^Nano, BMG).
HCC1937 was used as the breast cancer cell line.
The HCC1937 cell line was treated with Ac-[…], 3-PhPh-[…], 4-MeOPh-[…], 2-PhPh-[…], Ph-[…], and Naphthyl-[…] at a concentration of 100 μM, respectively, and cell proliferation suppression effects were compared after 72 hours.

[3] = test system: blood cancer cell line Jurkat clone E6-1; test: MTT assay, proliferation suppression in blood cancer cell line Jurkat clone E6-1; assay type: cell-based; settings: Jurkat clone E6-1, 10 μM, 48 hours
Procedure: as §2
As the blood cancer cell line, Jurkat clone E6-1 was used.
Jurkat clone E6-1 was treated with 4-PhPh-[…], Ac-[…], 3-PhPh-[…], 4-MeOPh-[…], 2-PhPh-[…], Ph-[…], and Naphthyl-[…] at a concentration of 10 μM, respectively, and cell proliferation suppression effects were compared after 48 hours.

[4] = test system: pancreatic cancer cell line CFPAC-1; test: MTT assay, cell viability suppression in pancreatic cancer cell line CFPAC-1; assay type: cell-based; settings: CFPAC-1, 10 μM, 72 hours
Procedure: as §2

[5] = test system: colorectal cancer cell line HT29; test: Cell proliferation suppression in colorectal cancer cell line HT29; assay type: cell-based; settings: HT29, 50 μM, 72 hours
Procedure: as §1, §2

[6] = test system: lung cancer cell line H820 tumors; test: Tumor growth suppression, nude mice inoculated with lung cancer cell line H820; assay type: in vivo; settings: H820 in nude mice, 10 mpk, tail vein, 5 times at 3-day intervals and 5 times at 2-day intervals
Procedure: 200 μl of H820 cells were inoculated once by subcutaneous injection into the flanks of mice at a concentration of 5×10^6 cells/mouse at 1:1 with Matrigel. After it was confirmed that the volume of a tumor mass formed after the inoculation reached 70 to 130 mm^3, random group separation was performed. […]

[7] = test system: CT26 cells induced to express CAGE gene; test: Tumor growth suppression, mice inoculated with CT26 cells induced to express CAGE gene; assay type: in vivo; settings: CT26 expressing CAGE, 10 mpk tail vein, 7 times at 2-day intervals; for tumor growth suppression compared to the AQTGTGKT administration group: day 14; for tumor volume on day 14 (average): day after 7th administration
Procedure: (§3) 200 μl of CT26 cells, which were induced to express CAGE gene, were inoculated once by subcutaneous injection into the flanks of mice at a concentration of 1×10^6 cells/mouse. After it was confirmed that the volume of a tumor mass formed after the inoculation reached 70 mm^3, random group separation was performed. A test material was injected to the tail vein 7 times at 2-day intervals at a concentration of 10 mpk, and the start date of administration was set as day 1. The tumor volume was calculated twice a week by measuring the width and length and at the same time, the mouse body weight was measured.

in vitro = settings: human
[8] = test system: breast cancer cell line HCC1806 tumors; test: Tumor growth suppression, mice inoculated with breast cancer cell line HCC1806; assay type: in vivo, immunodeficient mice; settings: HCC1806, 10 mpk tail vein, 7 times at 2-day intervals; for tumor volume on day 15 (average): 2 days after last administration; for tumor growth suppression compared to the tumor volume of the AQTGTGKT group: day 15
Procedure: as §3, with “a breast cancer cell line, HCC1806” for “CT26”, “cells,” for “cells, which were induced to express CAGE gene,”, “5×10^6” for “1×10^6”, “70 to 130” for “70”

[9] = Stability in human blood (residual amount over time)
[10] = test system: lung cancer cell line H1975; test: CTG assay, cell viability suppression in lung cancer cell line H1975; assay type: cell-based; settings: H1975, 10 μM, 72 hours
Procedure: as §1

[11] = test system: lung cancer cell line H820; test: Cell viability suppression in lung cancer (papillary adenocarcinoma) cell line H820; assay type: cell-based; settings: H820, 10 μM, 72 hours
Procedure: as §1, §2

[12] = test system: H1975 lung cancer cells tumors; test: Tumor growth suppression, nude mice inoculated with H1975 lung cancer cells; assay type: in vivo; settings: H1975 in nude mice, 10 mpk for 14 days
Procedure: 150 μl of H1975 cells were inoculated once by subcutaneous injection into the flanks of mice at a concentration of 4×10^6 cells/mouse. After it was confirmed that the volume of a tumor mass formed after the inoculation reached 70 to 130 mm^3, random group separation was performed. A test material was injected to the tail vein 5 times at 3-day intervals and 5 times at 2-day intervals.

[13] = test system: breast cancer cell line MDA-MB-231; test: CTG assay, activity of breast cancer cells MDA-MB-231 (amount of ATP); assay type: cell-based; settings: MDA-MB-231, 100 μM, 48 hours
Procedure: as §1

Row | Compound | half-life at 10 μM (in vitro) [min] | cell viability suppression effect compared to the control (AQTGTGKT) [1] | suppression of proliferation of cells compared to the control (AQTGTGKT) [2] | suppression of proliferation of cells compared to the control (AQTGTGKT) [3] | cell viability suppression effect compared to the control (AQTGTGKT) [4] | cell proliferation suppression effect compared to the control (AQTGTGKT) [5] | tumor growth suppression effect compared to the control (AQTGTGKT) [6] | tumor growth suppression compared to the AQTGTGKT administration group [7] | tumor volume on day 14 (average) [7] [mm^3] | tumor volume on day 15 (average) [8] [mm^3] | tumor growth suppression compared to the tumor volume of the AQTGTGKT group [8] | half-life at 10 μM [9] [min] | cell viability suppression effect compared to the control (AQTGTGKT) [10] | cell viability suppression effect compared to the control (AQTGTGKT) [11] | tumor growth reduction compared to the control (AQTGTGKT) [12] | reduction of activity of cells compared to the control (AQTGTGKT) [13]
1 | C[C@H](NC(=O)c1ccccc1)C(=O)N[C@@H](CCC(N)=O)C(=O)N[C@H](C(=O)NCC(=O)N[C@H](C(=O)NCC(=O)N[C@@H](CCCCN)C(=O)N[C@H](C(=O)O)[C@@H](C)O)[C@@H](C)O)[C@@H](C)O (Bz-AQTGTGKT-OH) | – | 18% | ~13.6% | ~10.2% | 3% | 40% | 20% | – | – | 1133.80 | ~39.82% | 47 to 105 | – | – | – | –
2 | C[C@H](NC(=O)c1ccccc1-c1ccccc1)C(=O)N[C@@H](CCC(N)=O)C(=O)N[C@H](C(=O)NCC(=O)N[C@H](C(=O)NCC(=O)N[C@@H](CCCCN)C(=O)N[C@H](C(=O)O)[C@@H](C)O)[C@@H](C)O)[C@@H](C)O ({Benzoyl(2-Ph)}-AQTGTGKT-OH) | 47 to 105 | 20% | ~15.9% | ~6.7% | – | 7% | 27% | – | – | – | – | – | 3% | – | – | –
3 | C[C@H](NC(=O)c1cccc(-c2ccccc2)c1)C(=O)N[C@@H](CCC(N)=O)C(=O)N[C@H](C(=O)NCC(=O)N[C@H](C(=O)NCC(=O)N[C@@H](CCCCN)C(=O)N[C@H](C(=O)O)[C@@H](C)O)[C@@H](C)O)[C@@H](C)O ({Benzoyl(3-Ph)}-AQTGTGKT-OH) | 47 to 105 | 15% | ~17.1% | ~6.4% | 2% | 59% | about 16.5% | about 65.79% | 880.35 | 944.70 | about 49.86% | – | 33% | about 12% | about 16.5% | –
4 | C[C@H](NC(=O)c1ccc(-c2ccccc2)cc1)C(=O)N[C@@H](CCC(N)=O)C(=O)N[C@H](C(=O)NCC(=O)N[C@H](C(=O)NCC(=O)N[C@@H](CCCCN)C(=O)N[C@H](C(=O)O)[C@@H](C)O)[C@@H](C)O)[C@@H](C)O ({Benzoyl(4-Ph)}-AQTGTGKT-OH) | 47 to 105 | about 10% | – | about 4.8% | about 12% | about 8% | – | – | – | – | – | – | – | – | – | about 30%
5 | AQTGTGKT [alanine-glutamine-threonine-glycine-threonine-glycine-lysine-threonine, reference compound] | – | – | – | – | – | – | – | – | 2573.07 | 1884.17 | – | < 1 | – | – | – | –
6 | Ac-AQTGTGKT | – | 4.2% | about 11.1% | ~7.9% | – | 58% | – | – | – | – | – | – | about 16% | – | – | –

Second part, led by results:

Row | half-life at 10 μM (in vitro) [min] | Compound | cell viability suppression effect compared to the control (AQTGTGKT) [1] | suppression of proliferation of cells compared to the control (AQTGTGKT) [2] | suppression of proliferation of cells compared to the control (AQTGTGKT) [3] | cell viability suppression effect compared to the control (AQTGTGKT) [4] | cell proliferation suppression effect compared to the control (AQTGTGKT) [5] | tumor growth suppression effect compared to the control (AQTGTGKT) [6] | tumor growth suppression compared to the AQTGTGKT administration group [7] | tumor volume on day 14 (average) [7] [mm^3] | tumor volume on day 15 (average) [8] [mm^3] | tumor growth suppression compared to the tumor volume of the AQTGTGKT group [8] | half-life at 10 μM [9] [min] | cell viability suppression effect compared to the control (AQTGTGKT) [10] | cell viability suppression effect compared to the control (AQTGTGKT) [11] | tumor growth reduction compared to the control (AQTGTGKT) [12] | reduction of activity of cells compared to the control (AQTGTGKT) [13]
7 | 47 to 105 | C[C@H](NC(=O)c1ccc2ccccc2c1)C(=O)N[C@@H](CCC(N)=O)C(=O)N[C@H](C(=O)NCC(=O)N[C@H](C(=O)NCC(=O)N[C@@H](CCCCN)C(=O)N[C@H](C(=O)O)[C@@H](C)O)[C@@H](C)O)[C@@H](C)O (2Naphthoyl-AQTGTGKT-OH) | 14% | ~9.5% | ~10.4% | 3% | 58% | 26% | about 62.04% | 880.35 | – | – | – | – | – | – | –
8 | 47 to 105 | COc1ccc(C(=O)N[C@@H](C)C(=O)N[C@@H](CCC(N)=O)C(=O)N[C@H](C(=O)NCC(=O)N[C@H](C(=O)NCC(=O)N[C@@H](CCCCN)C(=O)N[C@H](C(=O)O)[C@@H](C)O)[C@@H](C)O)[C@@H](C)O)cc1 ({Benzoyl(4-OMe)}-AQTGTGKT-OH) | 12% | ~14.3% | ~4% | 6% | 48% | – | – | – | 812.69 | ~56.86% | – | 4% | 10% | – | –
